Biological target: CXCR3 (Macaca fascicularis, UniProt A0A2K5UV19)
Assay: functional cellular assay measuring calcium flux in CXCR3 transfected cells (block of CXCR3/IP-10 interaction)
Format: cell-based
Settings: IP-10 induced intracellular calcium flux; Cyno-CHO cells stably expressing recombinant CXCR3 and G-alpha-16
In short: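 Cyno-CHO cells stably co-expressing recombinant CXCR3 and G-alpha-16, loaded with Ca-4 dye (HBSS, 10 mM HEPES pH 7.4, 2 mM probenecid) for 1 h at 37 °C. Compound (10 microM final) preincubated 15 min at room temperature, then IP-10 added at EC80. Intracellular calcium flux read by fluorescence (ex 480/em 540 nm).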

Sequence of CXCR3 (A0A2K5UV19 entry or part of it): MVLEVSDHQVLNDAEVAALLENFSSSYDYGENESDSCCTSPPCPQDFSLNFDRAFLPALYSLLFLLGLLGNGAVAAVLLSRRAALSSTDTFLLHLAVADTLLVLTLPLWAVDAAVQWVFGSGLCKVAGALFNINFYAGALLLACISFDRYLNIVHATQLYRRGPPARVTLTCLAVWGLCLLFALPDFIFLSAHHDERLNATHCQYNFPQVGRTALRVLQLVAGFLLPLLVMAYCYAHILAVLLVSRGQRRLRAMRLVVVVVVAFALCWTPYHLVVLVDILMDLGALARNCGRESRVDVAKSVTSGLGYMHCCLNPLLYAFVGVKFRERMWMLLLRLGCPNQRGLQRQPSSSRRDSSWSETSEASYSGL

SMILES | IC50 [nM]
Cc1cc(C)n(CC(=O)N2CCN(c3ccccc3C(=O)Nc3ccccc3F)CC2)n1 [2-{4-[2-(3,5-Dimethyl-pyrazol-1-yl)-acetyl]-piperazin-1-yl}-N-(2-fluoro-phenyl)-benzamide] | 5.5
Cc1cc(C)n(CC(=O)N2CCN(c3ccccc3C(=O)Nc3cccc(Cl)c3)CC2)n1 [N-(3-Chloro-phenyl)-2-{4-[2-(3,5-dimethyl-pyrazol-1-yl)-acetyl]-piperazin-1-yl}-benzamide] | 3.3
O=C(NCC(=O)N1CCN(c2ccccc2C(=O)Nc2cccnc2)CC1)c1ccccc1 [2-[4-(2-Benzoylamino-acetyl)-piperazin-1-yl]-N-pyridin-3-yl-benzamide] | 7.6
O=C(Nc1ccncc1)c1ccccc1N1CCN(C(=O)CN2C(=O)c3ccccc3S2(=O)=O)CC1 [N-Pyridin-4-yl-2-{4-[2-(1,1,3-trioxo-1,3-dihydro-1l6-benzo[d]isothiazol-2-yl)-acetyl]-piperazin-1-yl}-benzamide] | 6.6
COc1cccc(C(=O)NCC(=O)N2CCN(c3ccccc3C(=O)Nc3cccnc3)CC2)c1OC [2,3-Dimethoxy-N-(2-oxo-2-{4-[2-(pyridin-3-ylcarbamoyl)-phenyl]-piperazin-1-yl}-ethyl)-benzamide] | 12.5
Cc1cc(C)n(CC(=O)N2CCN(c3ccccc3C(=O)Nc3ccncc3)CC2)n1 [2-{4-[2-(3,5-Dimethyl-pyrazol-1-yl)-acetyl]-piperazin-1-yl}-N-pyridin-4-yl-benzamide] | 4.7
CN1CCc2nc(NC(=O)c3ccccc3N3CCN(C(=O)CN4Cc5ccccc5C4=O)CC3)sc2C1 [N-(5-Methyl-4,5,6,7-tetrahydro-thiazolo[5,4-c]pyridin-2-yl)-2-{4-[2-(1-oxo-1,3-dihydro-isoindol-2-yl)-acetyl]-piperazin-1-yl}-benzamide] | 2.9
COc1cc(NC(=O)c2ccccc2N2CCN(C(=O)CN(C)C(=O)c3ncoc3C)CC2)ccn1 [5-Methyl-oxazole-4-carboxylic acid (2-{4-[2-(2-methoxy-pyridin-4-ylcarbamoyl)-phenyl]-piperazin-1-yl}-2-oxo-ethyl)-methyl-amide] | 5.5
Cc1cc(C)n(CC(=O)N2CCN(c3ccccc3C(=O)Nc3nnc(C(C)(C)C)s3)CC2)n1 [N-(5-tert-Butyl-[1,3,4]thiadiazol-2-yl)-2-{4-[2-(3,5-dimethyl-pyrazol-1-yl)-acetyl]-piperazin-1-yl}-benzamide] | 9.7
O=C(Nc1ccncc1)c1ccccc1N1CCN(C(=O)CN2CCc3cccnc32)CC1 [2-[4-(2-2,3-Dihydro-pyrrolo[2,3-b]pyridin-1-yl-acetyl)-piperazin-1-yl]-N-pyridin-4-yl-benzamide] | 9
O=C(Nc1ccncc1)c1ccccc1N1CCN(C(=O)Cc2noc3ccccc23)CC1 [2-[4-(2-Benzo[d]isoxazol-3-yl-acetyl)-piperazin-1-yl]-N-pyridin-4-yl-benzamide] | 6.6
O=C(Nc1ccncc1)c1ccccc1N1CCN(C(=O)Cc2n[nH]c3ccccc23)CC1 [2-[4-(2-1H-Indazol-3-yl-acetyl)-piperazin-1-yl]-N-pyridin-4-yl-benzamide] | 7.2
Cc1cc(C)n(CC(=O)N2CCN(c3ccccc3C(=O)Nc3nc4cc(Cl)ccc4s3)CC2)n1 [N-(5-Chloro-benzothiazol-2-yl)-2-{4-[2-(3,5-dimethyl-pyrazol-1-yl)-acetyl]-piperazin-1-yl}-benzamide] | 17
COc1ccc(C(=O)NCC(=O)N2CCN(c3ccccc3C(=O)Nc3ccncc3)CC2)cc1 [4-Methoxy-N-(2-oxo-2-{4-[2-(pyridin-4-ylcarbamoyl)-phenyl]-piperazin-1-yl}-ethyl)-benzamide] | 3.4
Cc1cc(C)n(CC(=O)N2CCN(c3ccccc3C(=O)Nc3cnc(-c4ccccc4)nc3)CC2)n1 [2-{4-[2-(3,5-Dimethyl-pyrazol-1-yl)-acetyl]-piperazin-1-yl}-N-(2-phenyl-pyrimidin-5-yl)-benzamide] | 10.5
Cc1cc(C)n(CC(=O)N2CCN(c3ccccc3C(=O)Nc3ccc(Br)nc3)CC2)n1 [N-(6-Bromo-pyridin-3-yl)-2-{4-[2-(3,5-dimethyl-pyrazol-1-yl)-acetyl]-piperazin-1-yl}-benzamide] | 8.5
Cc1cc(C(=O)NCC(=O)N2CCN(c3ccccc3C(=O)Nc3cccnc3)CC2)nn1C [1,5-Dimethyl-1H-pyrazole-3-carboxylic acid (2-oxo-2-{4-[2-(pyridin-3-ylcarbamoyl)-phenyl]-piperazin-1-yl}-ethyl)-amide] | 20
Cc1cc(C)n(CC(=O)N2CCN(c3ccccc3C(=O)Nc3nc(-c4ccccn4)cs3)CC2)n1 [2-{4-[2-(3,5-Dimethyl-pyrazol-1-yl)-acetyl]-piperazin-1-yl}-N-(4-pyridin-2-yl-thiazol-2-yl)-benzamide] | 11.5
Cc1cc(C)n(CC(=O)N2CCN(c3ccccc3C(=O)Nc3ccc4oc(C)nc4c3)CC2)n1 [2-{4-[2-(3,5-Dimethyl-pyrazol-1-yl)-acetyl]-piperazin-1-yl}-N-(2-methyl-benzooxazol-5-yl)-benzamide] | 17.5
Cc1cc(C)n(CC(=O)N2CCN(c3ccccc3C(=O)Nc3ccc4cnccc4c3)CC2)n1 [2-{4-[2-(3,5-Dimethyl-pyrazol-1-yl)-acetyl]-piperazin-1-yl}-N-isoquinolin-6-yl-benzamide] | 13

The remaining lines, values ahead:

IC50 [nM] | SMILES
7.2 | Cc1cc(C)n(CC(=O)N2CCN(c3ccccc3C(=O)Nc3ccnc(Cl)c3)CC2)n1 [N-(2-Chloro-pyridin-4-yl)-2-{4-[2-(3,5-dimethyl-pyrazol-1-yl)-acetyl]-piperazin-1-yl}-benzamide]
6.6 | Cc1cc(C)n(CC(=O)N2CCN(c3ccccc3C(=O)Nc3nc4ccc(S(C)(=O)=O)cc4s3)CC2)n1 [2-{4-[2-(3,5-Dimethyl-pyrazol-1-yl)-acetyl]-piperazin-1-yl}-N-(6-methanesulfonyl-benzothiazol-2-yl)-benzamide]
15 | COc1ccc(C(=O)N(C)CC(=O)N2CCN(c3ccccc3C(=O)Nc3ccncc3)CC2)cc1F [3-Fluoro-4-methoxy-N-methyl-N-(2-oxo-2-{4-[2-(pyridin-4-ylcarbamoyl)-phenyl]-piperazin-1-yl}-ethyl)-benzamide]
4.9 | O=C(Nc1ccncc1)c1ccccc1N1CCN(C(=O)Cn2ccc3cccnc32)CC1 [N-Pyridin-4-yl-2-[4-(2-pyrrolo[2,3-b]pyridin-1-yl-acetyl)-piperazin-1-yl]-benzamide]
10 | Cc1cc(C)n(CC(=O)N2CCN(c3ccccc3C(=O)Nc3ccc(Oc4ccccc4)nc3)CC2)n1 [2-{4-[2-(3,5-Dimethyl-pyrazol-1-yl)-acetyl]-piperazin-1-yl}-N-(6-phenoxy-pyridin-3-yl)-benzamide]
6.3 | N#Cc1ccc(NC(=O)c2ccccc2N2CCN(C(=O)Cn3ccc4cccnc43)CC2)cn1 [N-(6-Cyano-pyridin-3-yl)-2-[4-(2-pyrrolo[2,3-b]pyridin-1-yl-acetyl)-piperazin-1-yl]-benzamide]
4.5 | Cc1cc(C)n(CC(=O)N2CCN(c3ccccc3C(=O)Nc3cccc(C#N)c3)CC2)n1 [N-(3-Cyano-phenyl)-2-{4-[2-(3,5-dimethyl-pyrazol-1-yl)-acetyl]-piperazin-1-yl}-benzamide]
5.7 | Cc1cc(C)n(CC(=O)N2CCN(c3ccccc3NC(=O)c3cncc(Br)c3)CC2)n1 [5-Bromo-N-(2-{4-[2-(3,5-dimethyl-pyrazol-1-yl)-acetyl]-piperazin-1-yl}-phenyl)-nicotinamide]
7.7 | O=C(Nc1cc(Cl)cnc1N1CCN(C(=O)CN2CCCCC2=O)CC1)c1cccc(Cl)c1 [3-Chloro-N-(5-chloro-2-{4-[2-(2-oxo-piperidin-1-yl)-acetyl]-piperazin-1-yl}-pyridin-3-yl)-benzamide]
4.2 | Cc1cc(C)n(CC(=O)N2CCN(c3ccccc3C(=O)Nc3ccc(C#N)nc3)CC2)n1 [N-(6-Cyano-pyridin-3-yl)-2-{4-[2-(3,5-dimethyl-pyrazol-1-yl)-acetyl]-piperazin-1-yl}-benzamide]
18.3 | O=C(NCC(=O)N1CCN(c2ccccc2C(=O)Nc2cccnc2)CC1)c1ccc(OC(F)F)cc1 [4-Difluormethoxy-N-(2-oxo-2-{4-[2-(pyridin-3-ylcarbamoyl)-phenyl]-piperazin-1-yl}-ethyl)-benzamide]
16 | COc1ccc(C(=O)NCC(=O)N2CCN(c3ccccc3C(=O)Nc3cccnc3)CC2)cc1 [4-Methoxy-N-(2-oxo-2-{4-[2-(pyridin-3-ylcarbamoyl)-phenyl]-piperazin-1-yl}-ethyl)-benzamide]
3.4 | O=C(Nc1ccncc1)c1ccccc1N1CCN(C(=O)Cn2cnc3ccccc3c2=O)CC1 [2-{4-[2-(4-Oxo-4H-quinazolin-3-yl)-acetyl]-piperazin-1-yl}-N-pyridin-4-yl-benzamide]
15 | Cc1cc(C)n(CC(=O)N2CCN(c3ccccc3C(=O)Nc3nc(C(C)(C)C)cs3)CC2)n1 [N-(4-tert-Butyl-thiazol-2-yl)-2-{4-[2-(3,5-dimethyl-pyrazol-1-yl)-acetyl]-piperazin-1-yl}-benzamide]
5 | Cc1cc(C)n(CC(=O)N2CCN(c3ccccc3C(=O)Nc3cnc(C(F)(F)F)nc3)CC2)n1 [2-{4-[2-(3,5-Dimethyl-pyrazol-1-yl)-acetyl]-piperazin-1-yl}-N-(2-trifluoromethyl-pyrimidin-5-yl)-benzamide]
6.1 | O=C(Nc1ccncc1)c1ccccc1N1CCN(C(=O)CN2C(=O)c3ccccc3C2=O)CC1 [2-{4-[2-(1,3-Dioxo-1,3-dihydro-isoindol-2-yl)-acetyl]-piperazin-1-yl}-N-pyridin-4-yl-benzamide]
4.2 | Cn1cccc1C(=O)NCC(=O)N1CCN(c2ccccc2C(=O)Nc2ccncc2)CC1 [1-Methyl-1H-pyrrole-2-carboxylic acid (2-oxo-2-{4-[2-(pyridin-4-ylcarbamoyl)-phenyl]-piperazin-1-yl}-ethyl)-amide]
3.4 | COc1cc(NC(=O)c2ccccc2N2CCN(C(=O)CN3Cc4ccccc4C3=O)CC2)ccn1 [N-(2-Methoxy-pyridin-4-yl)-2-{4-[2-(1-oxo-1,3-dihydro-isoindol-2-yl)-acetyl]-piperazin-1-yl}-benzamide]

Source: patent US8362249B2, “CXCR3 receptor antagonists” (Boehringer Ingelheim International GmbH, priority 2009, dated 2013)
